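1) Cells in 96-well plates. 2) Compound, 48 h, 5 concentrations. 3) Linear interpolation between surrounding doses. 4) Unreached endpoint = highest concentration. The concentration for 50% growth inhibition is given as GI50.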 The source made the active and inactive calls. Cut-off read from the data, not from the text of the source: active = GI50 up to about 1.1 µM and inactive = higher. Positions of bridges follow the written chain, without caps; N, C: chain ends. Residues, ends and D or L forms follow the SMILES beside them. Peptide text beside a SMILES is read from it.
What was measured:
Experiment in all cases: inhibition of tumour cell growth, NCI panel, 48 h
IGROV-1 = tested on: IGROV-1
SW-620 = tested on: SW-620
SK-OV-3 = tested on: SK-OV-3
SR = tested on: SR
T47D = tested on: T47D
OVCAR-5 = tested on: OVCAR-5
SNB-75 = tested on: SNB-75
MOLT-4 = tested on: MOLT-4
ACHN = tested on: ACHN
COLO 205 = tested on: COLO 205
A498 = tested on: A498
OVCAR-4 = tested on: OVCAR-4
786-0 = tested on: 786-0
EKVX = tested on: EKVX
HT-29 = tested on: HT-29
NCI/ADR-RES = tested on: NCI/ADR-RES
SN12C = tested on: SN12C
MCF7 = tested on: MCF7
SNB-19 = tested on: SNB-19

SMILES | GI50 (IGROV-1) | GI50 (SW-620) | GI50 (SK-OV-3) | GI50 (SR) | GI50 (T47D) | GI50 (OVCAR-5) | GI50 (SNB-75) | GI50 (MOLT-4) | GI50 (ACHN) | GI50 (COLO 205) | GI50 (A498) | GI50 (OVCAR-4) | GI50 (786-0) | GI50 (EKVX) | GI50 (HT-29) | GI50 (NCI/ADR-RES) | GI50 (SN12C) | GI50 (MCF7) | GI50 (SNB-19)
CCOC(=O)c1nc2ccccc2nc1NCc1cc(OC)c(OC)c(OC)c1 | 53.1 µM (inactive) | 42.2 µM (inactive) | 80.5 µM (inactive) | 37.8 µM (inactive) | 35.5 µM (inactive) | > 100 µM (inactive) | 89.5 µM (inactive) | 27.2 µM (inactive) | 43.6 µM (inactive) | 38.2 µM (inactive) | 23.9 µM (inactive) | 29.6 µM (inactive) | 72.9 µM (inactive) | 51.1 µM (inactive) | 40.5 µM (inactive) | 15.1 µM (inactive) | 27.4 µM (inactive) | 35.6 µM (inactive) | 
CC(C)(C)OC(=O)NCC(=O)NC1C/C(=N\O)c2sccc21 (stereo not given) | > 100 µM (inactive) | > 100 µM (inactive) | > 100 µM (inactive) | > 100 µM (inactive) | > 100 µM (inactive) | > 100 µM (inactive) | > 100 µM (inactive) | 0.621 µM (active) |  | > 100 µM (inactive) | > 100 µM (inactive) | > 100 µM (inactive) |  | > 100 µM (inactive) | > 100 µM (inactive) | > 100 µM (inactive) | > 100 µM (inactive) | > 100 µM (inactive) | > 100 µM (inactive)
Cc1cccc(NC(=S)Nc2ccccc2Cl)n1 | 30.1 µM (inactive) | > 100 µM (inactive) | 25.8 µM (inactive) | > 100 µM (inactive) | 29 µM (inactive) | 81.7 µM (inactive) | 19.3 µM (inactive) | > 100 µM (inactive) |  | > 100 µM (inactive) | 24.9 µM (inactive) | 24.4 µM (inactive) | 34.3 µM (inactive) | 21.9 µM (inactive) | > 100 µM (inactive) | 49 µM (inactive) | 51.8 µM (inactive) | > 100 µM (inactive) | 25.1 µM (inactive)
Nc1ncc(CN2CCOCC2)c(-c2ccccc2O)n1 | > 100 µM (inactive) | > 100 µM (inactive) | > 100 µM (inactive) | > 100 µM (inactive) | > 100 µM (inactive) | > 100 µM (inactive) | > 100 µM (inactive) | > 100 µM (inactive) | > 100 µM (inactive) | > 100 µM (inactive) | > 100 µM (inactive) | > 100 µM (inactive) | > 100 µM (inactive) | > 100 µM (inactive) | > 100 µM (inactive) | > 100 µM (inactive) | > 100 µM (inactive) | > 100 µM (inactive) | 
CN1C(=O)N(C)C2(CCN(CCCCCCF)CC2)C1=O | > 100 µM (inactive) | > 100 µM (inactive) | > 100 µM (inactive) | > 100 µM (inactive) | > 100 µM (inactive) | > 100 µM (inactive) | > 100 µM (inactive) | > 10 µM (inactive) | > 100 µM (inactive) | > 100 µM (inactive) |  |  | > 100 µM (inactive) | > 100 µM (inactive) | > 100 µM (inactive) | > 100 µM (inactive) | > 100 µM (inactive) | > 100 µM (inactive) | > 100 µM (inactive)
CC(=O)Oc1cc2c(c3ncccc13)OC(C)(C)C2 | 2.29 µM (inactive) | 13.3 µM (inactive) | 27.2 µM (inactive) | 1.54 µM (inactive) | 17.1 µM (inactive) | 14.8 µM (inactive) | 2.06 µM (inactive) | 12.3 µM (inactive) | 11.1 µM (inactive) | 18.1 µM (inactive) | 16.9 µM (inactive) | 12.1 µM (inactive) | 14.6 µM (inactive) |  | 15.7 µM (inactive) | 2.95 µM (inactive) | 12.2 µM (inactive) | 16.7 µM (inactive) | 
CS(=O)(=O)O.[Ag] | 1.6 µM (inactive) | 3.01 µM (inactive) | 18.3 µM (inactive) |  | 2.15 µM (inactive) | 19.3 µM (inactive) | 12.3 µM (inactive) | 2.32 µM (inactive) | 4.53 µM (inactive) | 2.16 µM (inactive) | 20.8 µM (inactive) | 2.33 µM (inactive) | 16.3 µM (inactive) | 21.9 µM (inactive) | 19.3 µM (inactive) | 29.8 µM (inactive) | 19.1 µM (inactive) | 4.03 µM (inactive) | 29.3 µM (inactive)
CCCCN1C(=O)CC2[C@@H]3CCc4cc(OC(C)=O)ccc4C3CC[C@]2(C)C1=O (stereo not given in full) | > 10 µM (inactive) | > 10 µM (inactive) | > 10 µM (inactive) | > 10 µM (inactive) | > 10 µM (inactive) | > 10 µM (inactive) |  | > 10 µM (inactive) | > 10 µM (inactive) | > 10 µM (inactive) | > 10 µM (inactive) | > 10 µM (inactive) | > 10 µM (inactive) | > 10 µM (inactive) | > 10 µM (inactive) | > 10 µM (inactive) | > 10 µM (inactive) | > 10 µM (inactive) | > 10 µM (inactive)
Nc1cc(N2CCOCC2)nc(=O)n1-c1ccccc1 | > 100 µM (inactive) | > 100 µM (inactive) | > 100 µM (inactive) | > 100 µM (inactive) | > 100 µM (inactive) | > 100 µM (inactive) | > 100 µM (inactive) | > 100 µM (inactive) | > 100 µM (inactive) | > 100 µM (inactive) | > 100 µM (inactive) |  | > 100 µM (inactive) | > 100 µM (inactive) | > 100 µM (inactive) | > 100 µM (inactive) | > 100 µM (inactive) | > 100 µM (inactive) | > 100 µM (inactive)
O/N=C(\CC(O)(C(F)(F)F)C(F)(F)F)c1cccc(Cl)c1 | 27.1 µM (inactive) | 37.8 µM (inactive) | 22.7 µM (inactive) | 45.3 µM (inactive) | 32.7 µM (inactive) | 47.9 µM (inactive) | 18.2 µM (inactive) | 15.5 µM (inactive) | 23.8 µM (inactive) | 35.6 µM (inactive) | 34 µM (inactive) | 34.5 µM (inactive) | 35.5 µM (inactive) | 22.2 µM (inactive) | 69.2 µM (inactive) | 38 µM (inactive) |  | 35 µM (inactive) | 
O=C1/C(=C\c2ccc(O)cc2)CCC/C1=C/c1ccc(Cl)c(Cl)c1 | 0.331 µM (active) | 3.37 µM (inactive) | 4.37 µM (inactive) |  | 11.5 µM (inactive) | 18.8 µM (inactive) | 2.72 µM (inactive) | 1.82 µM (inactive) | 3.52 µM (inactive) | 1.76 µM (inactive) | 3.39 µM (inactive) | 2.32 µM (inactive) | 2.43 µM (inactive) | 7.69 µM (inactive) | 1.63 µM (inactive) | 2.03 µM (inactive) | 2.73 µM (inactive) | 2.69 µM (inactive) | 5.51 µM (inactive)
SC1=NC2=C(CSC/C2=C\c2ccccc2)C(c2ccccc2)N1 (stereo not given) | > 100 µM (inactive) | 48.3 µM (inactive) | 92.7 µM (inactive) | 32.7 µM (inactive) | 56.4 µM (inactive) | > 100 µM (inactive) |  | 27.7 µM (inactive) | 49.7 µM (inactive) | 37.5 µM (inactive) |  | > 100 µM (inactive) | 34.2 µM (inactive) | 45.5 µM (inactive) | 32.6 µM (inactive) | 47.5 µM (inactive) | 38.1 µM (inactive) | 30.9 µM (inactive) | 39.6 µM (inactive)
CC(=O)OCC1=C(C(=O)O)N2C(=O)C(NC(=O)CSc3ccncc3)C2SC1 (stereo not given) | > 100 µM (inactive) | > 100 µM (inactive) | > 100 µM (inactive) | > 100 µM (inactive) | > 100 µM (inactive) | > 100 µM (inactive) | > 100 µM (inactive) | > 100 µM (inactive) | > 100 µM (inactive) | > 100 µM (inactive) | > 100 µM (inactive) |  | > 100 µM (inactive) | > 100 µM (inactive) | > 100 µM (inactive) | > 100 µM (inactive) | > 100 µM (inactive) | > 100 µM (inactive) | > 100 µM (inactive)
COC(=O)C1CCC(=O)NCCCCC(NC(=O)C(N)CC(=O)O)C(=O)N1 (stereo not drawn) (H-Asp-Lys-Glu-OMe; lactam 2-3; configuration not given here) | > 100 µM (inactive) | > 100 µM (inactive) | > 100 µM (inactive) | > 100 µM (inactive) | > 100 µM (inactive) | > 100 µM (inactive) | 88.7 µM (inactive) | > 100 µM (inactive) | 41.2 µM (inactive) | > 100 µM (inactive) |  | > 100 µM (inactive) | 71.9 µM (inactive) | > 100 µM (inactive) | > 100 µM (inactive) | > 100 µM (inactive) | > 100 µM (inactive) | 62.7 µM (inactive) | > 100 µM (inactive)
CCC(C)C(NC(=O)C(NC(=O)C(CC(N)=O)NC(=O)CN)C(C)O)C(=O)NC(C(=O)NC(C)C(=O)NC(C(=O)NC(CCC(=O)O)C(=O)NC(CC(C)C)C(=O)NC(CC(=O)O)C(=O)NC(C(=O)NC(Cc1ccc(O)cc1)C(=O)N1CCCC1C(=O)O)C(C)O)C(C)C)C(C)C (stereo not given) (H-GNTIVAVELDTYP-OH; configuration not given here) | > 50 µM (inactive) | > 50 µM (inactive) | > 50 µM (inactive) | > 50 µM (inactive) | > 50 µM (inactive) | > 50 µM (inactive) | > 50 µM (inactive) | > 50 µM (inactive) | > 50 µM (inactive) | > 50 µM (inactive) |  | > 50 µM (inactive) | > 50 µM (inactive) | > 50 µM (inactive) | > 50 µM (inactive) | > 50 µM (inactive) | > 50 µM (inactive) | > 50 µM (inactive) | > 50 µM (inactive)

— ChEMBL document CHEMBL1201862, “PubChem BioAssay data set” (2004)
